Entries after “also recorded” stand apart in the source; their conditions may differ.
Legend:
[1] = test system: sun-damaged, wrinkled, aged skin of the face and forearms; experiment: Topical assay for antiaging and antiactinic effects (dermatoheliosis); format: in vivo, human (patients)
Description: Four subjects aged 49 to 73, three females and one male having significant,easily observe, sun-damaged, wrinkled, aged skin of the face and forearms are subjects of a study to determine the effect of topical application of 2-(9-cis-retinoyloxy)-4-methoxyacetophenone in the treatment of dermatoheliosis. The three females had moderately severe sun-damaged skin and wrinkles of the forearms, hands and face. The one person has extremely severe sun damage in these areas as well as multiple actinic keratoses. The four subjects are provided with and applied to their entire faces (omitting the eyelids) and dorsal surface of the right forearm, once daily for 12 to 16 weeks, 0.1% concentration of 2-(9-cis-retinoyloxy)-4-methoxyacetophenone in a hydrophilic cream vehicle. The left forearm of each patient is treated daily with a non-medicated moisturizer of the patients choice.
All subjects are evaluated every 4 weeks through the study for redness, peeling, skin surface texture and wrinkling. Biopsies (using a 4 mm punch) are taken from the dorsal surface of the right upper forearm at the beginning of the study and again from the same area at the end of the study. The biopsies are stained with H & E, Alcian Blue and collagen/elastic stains and compared by a qualified dematopathologist.

rabbit skin = experiment: Draize test for irritation (rabbit dermal irritation); format: in vivo
[2] = test system: Human neonatal foreskin fibroblasts; experiment: Growth of human neonatal foreskin fibroblasts (cell number); format: cell-based; details: two days
Description: Human neonatal foreskin keratinocytes and human neonatal foreskin fibroblasts were isolated and grown in monlayer culture. Culture medium for keratinocytes was Keratincyte Growth Medium (KGM) from Clonetics, Inc., San Diego. Calif. The culture medium for fibroblasts was Dulbecco's Modified Eagle's Medium (DMEM) supplemented with non-essential amino acids and 10% fetal bovine serum. The culture medium was obtained from GIBCO, Grand Island, N.Y. and the FBS was from Hyclone Labs, Inc., Logan, Utah.
Cells at passage 2-4 were plated in wells of a 24 well dish at approximately 5×10^4 cells per well in their respective culture medium. Incubation was at 37° C. with 5% CO2. After the cells attached and spread overnight, they were washed two times in serum-free keratincyte basal medium (KBM) and incubated in 1 ml of KBM or in 1 ml of KGM. Compound IV was added in varying concentrations to the wells. All-trans-retinoic acid (or no treatment) was added to control wells. The cells were incubated for an additional two days for fibroblasts and three days for keratinocytes, and were then harvested and counted. The effect of IV and of the controls are shown for both cell types in Tables 9 and 10: […]

[3] = test system: partial-thickness skin wounds; details: cited from earlier work
keratinocytes = details: in vitro; cited from earlier work
[4] = 0.1% cream, once daily for 12 to 16 weeks

| SMILES | Facial improvement of dermatoheliosis [1, 4] | Irritation during antiaging study [1, 4] | Forearm improvement in surface texture, dryness and fine wrinkling ([1]; 0.1% cream, once daily, within two months) | Biopsy differences before and after treatment ([1]; dorsal right forearm, 4 mm punch) | Erythema Grade (rabbit skin; dose 0.001%) | Erythema Grade (rabbit skin; dose 0.01%) | Erythema Grade (rabbit skin; dose 0.1%) | ID50, dermal irritation (rabbit skin; rabbit) [%] | Number of fibroblasts ([2]; 0.25 μg/ml) | Number of fibroblasts ([2]; 0.5 μg/ml) | Number of fibroblasts ([2]; 1.0 μg/ml) | Effect on healing when applied after wounding ([3]; applied after wounding) | Rate of healing ([3]; pre-treated with 0.05% tretinoin cream for 10 days prior to wounding) [%] | Effect on keratinocyte proliferation and growth (keratinocytes) |
| --- | --- | --- | --- | --- | --- | --- | --- | --- | --- | --- | --- | --- | --- | --- |
| COc1ccc(C(=O)COC(=O)/C=C(C)/C=C/C=C(C)\C=C\C2=C(C)CCCC2(C)C)cc1 [Compound 2, 2-(9-cis-retinoyloxy)-4'-methoxyacetophenone] | all show an improvement in their dermatoheliosis; also recorded: Two of the four patients show very significant improvement in facial smoothness, dryness and fine wrinkling; also recorded: Moderate improvement of these parameters are observed in the other two patients | No significant irritation is experienced by any patient; also recorded: Very slight pinkness and a feeling of slight tightness in facial skin develops in two patients | three show improvement in surface texture (smoothness), surface dryness and fine wrinkling within two months | no significant differences in before treatment and after treatment biopsies |  |  |  |  |  |  |  |  |  |  |
| CC1=C(/C=C/C(C)=C/C=C/C(C)=C/C(=O)O)C(C)(C)CCC1 [all-trans-retinoic acid, reference compound] |  |  |  |  | 0.4 | 0.8 | 2.8 | 0.01 | 10.1 ± 0.2 × 10^4 cells | 10.1 ± 0.1 × 10^4 cells | 9.6 ± 0.1 × 10^4 cells | deleterious effect on healing | 6 | capacity to stimulate proliferation of quiescent keratinocytes in vitro |

Reference: US5837728A, “9-cis retinoic acid esters and amides and uses thereof” (priority 1995, dated 1998)
